Measured values from PMC4876928 (Clinical cancer research : an official journal of the …, 2016).

How the values were obtained:
[1] = Phase I safety and tolerability: DLTs, MTD, adverse events; assay type: in vivo, human
[2] = in vitro; weakly basic molecule; cited from earlier work
[3] = system: xenograft cancer models with PI3K-mutant, PTEN-null, and KRAS-mutant cell lines; details: multiple xenograft models; cited from earlier work
[4] = All patients in study (n=120), G3
[5] = All patients in study (n=120), ≤G2
[6] = All patients in study (n=120), ≥G4

Cc1c(CN2CCN(C(=O)[C@H](C)O)CC2)sc2c(N3CCOCC3)nc(-c3cnc(N)nc3)nc12 [apitolisib]
Nausea, treatment related AE, n (%) ([1]; 40mg 28/28d (n=51), ≤G2): 22 (43%) | Patients with any AE related to apitolisib, n (%) ([1]; 40mg 28/28d (n=51), ≤G2): 20 (39%) | Pneumonitis, treatment related AE, n (%) ([1]; 40mg 28/28d (n=51), ≤G2): 1 (2%) | Pruritus, treatment related AE, n (%) ([1]; 40mg 28/28d (n=51), ≤G2): 13 (25%) | Rash (maculopapular, pruritic, macular, erythematous, generalized), treatment related AE, n (%) ([1]; 40mg 28/28d (n=51), ≤G2): 20 (39%) | Vomiting, treatment related AE, n (%) ([1]; 40mg 28/28d (n=51), ≤G2): 10 (20%) | Decreased appetite, treatment related AE, n (%) ([1]; 40mg 28/28d (n=51), ≥G4): 0 | Diarrhea, treatment related AE, n (%) ([1]; 40mg 28/28d (n=51), ≥G4): 0 | Dry skin, treatment related AE, n (%) ([1]; 40mg 28/28d (n=51), ≥G4): 0 | Fatigue, treatment related AE, n (%) ([1]; 40mg 28/28d (n=51), ≥G4): 0 | Hyperglycemia, treatment related AE, n (%) ([1]; 40mg 28/28d (n=51), ≥G4): 0 | Liver dysfunction (abnormal LFTs), treatment related AE, n (%) ([1]; 40mg 28/28d (n=51), ≥G4): 0 | Mucosal inflammation, treatment related AE, n (%) ([1]; 40mg 28/28d (n=51), ≥G4): 0 | Nausea, treatment related AE, n (%) ([1]; 40mg 28/28d (n=51), ≥G4): 0 | Patients with any AE related to apitolisib, n (%) ([1]; 40mg 28/28d (n=51), ≥G4): 5 (10%) | Pneumonitis, treatment related AE, n (%) ([1]; 40mg 28/28d (n=51), ≥G4): 2 (4%) | Pruritus, treatment related AE, n (%) ([1]; 40mg 28/28d (n=51), ≥G4): 0 | Rash (maculopapular, pruritic, macular, erythematous, generalized), treatment related AE, n (%) ([1]; 40mg 28/28d (n=51), ≥G4): 0 | Vomiting, treatment related AE, n (%) ([1]; 40mg 28/28d (n=51), ≥G4): 0 | DLTs, Description ([1]; 70 mg 21/28 d, stage 1): G3 maculopapular rash and G3 fasting hyperglycemia | treatment related deaths on study ([1]; 1 at 50 mg QD 21/28, 3 at 40 mg QD 28/28): 4 | patients requiring treatment discontinuation for rash ([1]; 4 patients in stage 2 (2 at 40 mg and 2 at 30 mg QD)): 5.1% | DLTs, Description ([1]; All doses, stage 1): Hyperglycemia (n=2) Rash | Decreased appetite, treatment related AE, n (%) [1, 4]: 0 | Diarrhea, treatment related AE, n (%) [1, 4]: 11 (9%) | Dry skin, treatment related AE, n (%) [1, 4]: 1 (1%) | Fatigue, treatment related AE, n (%) [1, 4]: 7 (6%) | Hyperglycemia, treatment related AE, n (%) [1, 4]: 18 (15%) | Liver dysfunction (abnormal LFTs), treatment related AE, n (%) [1, 4]: 9 (8%) | Mucosal inflammation, treatment related AE, n (%) [1, 4]: 4 (3%) | Nausea, treatment related AE, n (%) [1, 4]: 2 (2%) | Patients with any AE related to apitolisib, n (%) [1, 4]: 51 (42%) | Pneumonitis, treatment related AE, n (%) [1, 4]: 4 (3%) | Pruritus, treatment related AE, n (%) [1, 4]: 1 (1%) | Rash (maculopapular, pruritic, macular, erythematous, generalized), treatment related AE, n (%) [1, 4]: 14 (12%) | Vomiting, treatment related AE, n (%) [1, 4]: 1 (1%) | Decreased appetite, treatment related AE, n (%) [1, 5]: 42 (35%) | Diarrhea, treatment related AE, n (%) [1, 5]: 60 (50%) | Dry skin, treatment related AE, n (%) [1, 5]: 16 (13%) | Fatigue, treatment related AE, n (%) [1, 5]: 73 (61%) | Hyperglycemia, treatment related AE, n (%) [1, 5]: 9 (8%) | Liver dysfunction (abnormal LFTs), treatment related AE, n (%) [1, 5]: 4 (3%) | Mucosal inflammation, treatment related AE, n (%) [1, 5]: 27 (23%) | Nausea, treatment related AE, n (%) [1, 5]: 48 (40%) | Patients with any AE related to apitolisib, n (%) [1, 5]: 60 (50%) | Pneumonitis, treatment related AE, n (%) [1, 5]: 8 (7%) | Pruritus, treatment related AE, n (%) [1, 5]: 22 (18%) | Rash (maculopapular, pruritic, macular, erythematous, generalized), treatment related AE, n (%) [1, 5]: 47 (39%) | Vomiting, treatment related AE, n (%) [1, 5]: 24 (20%) | Decreased appetite, treatment related AE, n (%) [1, 6]: 0 | Diarrhea, treatment related AE, n (%) [1, 6]: 0 | Dry skin, treatment related AE, n (%) [1, 6]: 0 | Fatigue, treatment related AE, n (%) [1, 6]: 0 | Hyperglycemia, treatment related AE, n (%) [1, 6]: 2 (2%) | Liver dysfunction (abnormal LFTs), treatment related AE, n (%) [1, 6]: 0 | Mucosal inflammation, treatment related AE, n (%) [1, 6]: 0 | Nausea, treatment related AE, n (%) [1, 6]: 0 | Patients with any AE related to apitolisib, n (%) [1, 6]: 8 (7%) | Pneumonitis, treatment related AE, n (%) [1, 6]: 2 (2%) | Pruritus, treatment related AE, n (%) [1, 6]: 0 | Rash (maculopapular, pruritic, macular, erythematous, generalized), treatment related AE, n (%) [1, 6]: 0 | Vomiting, treatment related AE, n (%) [1, 6]: 0 | maximum tolerated dose (MTD) ([1]; QD, 21/28-day schedule, DLT <33.3%): 50 mg | recommended phase 2 dose (RP2D) ([1]; QD, 28/28-day schedule, except MPM patients): 40 mg | recommended dose for MPM ([1]; QD, 28/28 schedule, malignant pleural mesothelioma patients): 30 mg | maximum administered dose (MAD) ([1]; QD, continuous 28/28 schedule): 50 mg | diarrhea, treatment related ≥G3 ([1]; RP2D 40 mg QD): 10% | fatigue, treatment related ≥G3 ([1]; RP2D 40 mg QD): 4% | hyperglycemia, treatment related ≥G3 ([1]; RP2D 40 mg QD): 18% | liver dysfunction, treatment related ≥G3 ([1]; RP2D 40 mg QD): 12% | mucosal inflammation, treatment related ≥G3 ([1]; RP2D 40 mg QD): 6% | pneumonitis, treatment related ≥G3 ([1]; RP2D 40 mg QD): 8% | rash, treatment related ≥G3 ([1]; RP2D 40 mg QD): 14% | pneumonitis cases reported on study ([1]; all patients, six severe): 14 | MTD ([1]; continuous 28/28 schedule): not reached | dose reductions due to diarrhea ([1]; human, in vivo, oral): 2 n | dose reductions due to mucosal inflammation ([1]; human, in vivo, oral): 2 n | dose reductions due to pneumonitis ([1]; human, in vivo, oral): 2 n | rate of severe pneumonitis (grade ≥3) ([1]; in vivo): 8% | patients with pneumonitis outside the DLT window ([1]; stage 1, including 3 severe cases): 8 patients | drug solubility [2]: pH-dependent drug solubility | Tumor growth inhibition [3]: Tumor growth inhibition has been demonstrated
